Assays:
[1] = biological target: Bifunctional purine biosynthesis protein ATIC (Homo sapiens, UniProt P31939); assay: Inhibition of 5-aminoimidazole-4-carboxamide AICAR formyltransferase in MOLT-4 cells; format: cell-based; details: read-out: I50
Thymidylate synthase = Thymidylate synthase (Homo sapiens, UniProt P04818); assay: Inhibition of thymidylate synthase (TS) in human; details: read-out: I50
Sus scrofa [2] = species on record: Sus scrofa; assay: (§1) Compound was evaluated for the substrate activity for hog liver Folyl-polyglutamate synthase
Dihydrofolate reductase = biological target: T1, Dihydrofolate reductase (Homo sapiens, UniProt P00374); assay: Inhibition of dihydrofolate reductase (DHFR) in WIL2 cells; format: cell-based; details: read-out: I50
T1 sequence (P00374 whole entry): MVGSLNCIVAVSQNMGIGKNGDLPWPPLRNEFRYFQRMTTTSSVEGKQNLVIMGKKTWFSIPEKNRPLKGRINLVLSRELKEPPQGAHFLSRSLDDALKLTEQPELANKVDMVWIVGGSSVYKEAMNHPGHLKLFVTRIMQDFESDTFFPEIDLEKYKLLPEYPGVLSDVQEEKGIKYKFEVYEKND

MCF7 = assay: Effective dose which is required to inhibit 50% of the cell growth of MCF-7 cells in culture.; format: functional; details: Homo sapiens, read-out: ED50 (the source's name)
[3] = Ratio of relative Vmax values to that of apparent Km values.; format: ADME
MOLT-4 = assay: Inhibition of the uptake of [3H]MTX influx into MOLT-4 cells.; format: functional, cell-based, Homo sapiens
[4] = tested on: Folyl-polyglutamate synthase; assay: as §1; format: ADME, tissue-based, Sus scrofa; details: pig, hog liver folylpolyglutamate synthase; read-out: Km app
Sus scrofa [5] = species on record: Sus scrofa; assay: Compound was evaluated for the substrate activity for hog liver […] synthetase

Thymidylate synthase, sequence (P04818 whole entry): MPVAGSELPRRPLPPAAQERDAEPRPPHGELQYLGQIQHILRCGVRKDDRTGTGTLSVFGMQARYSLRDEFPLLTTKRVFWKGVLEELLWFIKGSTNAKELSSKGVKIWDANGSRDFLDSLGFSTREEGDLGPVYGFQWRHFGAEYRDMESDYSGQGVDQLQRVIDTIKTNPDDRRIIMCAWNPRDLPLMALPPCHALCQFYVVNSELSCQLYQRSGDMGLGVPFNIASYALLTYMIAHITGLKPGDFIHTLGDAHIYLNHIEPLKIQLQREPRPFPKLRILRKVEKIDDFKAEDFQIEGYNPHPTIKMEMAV
Bifunctional purine biosynthesis protein ATIC, sequence (P31939 whole entry): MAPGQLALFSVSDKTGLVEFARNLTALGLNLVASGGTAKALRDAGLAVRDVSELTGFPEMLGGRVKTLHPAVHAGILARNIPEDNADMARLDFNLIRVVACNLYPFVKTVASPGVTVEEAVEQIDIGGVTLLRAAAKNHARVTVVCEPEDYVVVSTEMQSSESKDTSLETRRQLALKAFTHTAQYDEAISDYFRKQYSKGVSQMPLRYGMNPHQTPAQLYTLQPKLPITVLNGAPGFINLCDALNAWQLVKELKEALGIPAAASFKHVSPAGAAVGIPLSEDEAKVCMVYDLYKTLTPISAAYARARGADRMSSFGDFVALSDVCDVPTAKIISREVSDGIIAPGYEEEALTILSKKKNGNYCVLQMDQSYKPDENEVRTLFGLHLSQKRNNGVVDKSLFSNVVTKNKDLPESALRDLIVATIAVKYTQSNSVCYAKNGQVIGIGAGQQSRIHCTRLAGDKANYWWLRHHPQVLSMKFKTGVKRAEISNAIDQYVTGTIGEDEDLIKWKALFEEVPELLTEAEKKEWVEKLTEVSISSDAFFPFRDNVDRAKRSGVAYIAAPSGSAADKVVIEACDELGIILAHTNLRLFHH

Structure (SMILES) | IC50 [1] [µM] | IC50 (Thymidylate synthase) [µM] | Km (Sus scrofa [2]) [µM] | IC50 (Dihydrofolate reductase) [µM] | EC50 (MCF7) [µM] | Ratio [3] | Km [4] [µM] | Km (Sus scrofa [5]) [µM] | Ki (MOLT-4) [µM]
Nc1nc(N)c(CCCNc2ccc(C(=O)N[C@@H](CCC(=O)O)C(=O)O)cc2)c(O)n1 |  | > 100 |  | > 100 | 0.037 | 14.9 | 6.7 |  | 1
CN(Cc1ccc(C(=O)NC(CCC(=O)O)C(=O)O)cc1)C1CNc2nc(N)nc(O)c2C1 (configuration not stated) | > 100 | > 100 |  | > 1000 | 4.5 | 7 |  | 9.4 | 22
Nc1nc(O)c2c(n1)NCC(CCc1ccc(C(=O)NC(CCC(=O)O)C(=O)O)cc1)C2 (configuration not stated) |  | > 1000 | 17.5 | > 100 | 0.018 |  |  |  | 1.5

Further lines, with some results ahead:

IC50 [1] [µM] | IC50 (Thymidylate synthase) [µM] | Km (Sus scrofa [2]) [µM] | IC50 (Dihydrofolate reductase) [µM] | EC50 (MCF7) [µM] | Ratio [3] | Km [4] [µM] | Km (Sus scrofa [5]) [µM] | Structure (SMILES) | Ki (MOLT-4) [µM]
49.9 | 28.8 | > 100 | 1.95 | > 100 |  |  |  | Nc1nc(O)c2cc(N(C=O)Cc3ccc(C(=O)NC(CCC(=O)O)C(=O)O)cc3)cnc2n1 (configuration not stated) | 
> 100 | > 100 | 67.4 | > 1000 | 1.2 | 1 |  |  | Nc1nc(O)c2c(n1)NCC(NCc1ccc(C(=O)NC(CCC(=O)O)C(=O)O)cc1)C2 (configuration not stated) | 17.5
62.8 | 7.1 | 133 | 0.21 | > 100 |  |  |  | Nc1nc(O)c2cc(NCc3ccc(C(=O)NC(CCC(=O)O)C(=O)O)cc3)cnc2n1 (configuration not stated) | > 30
141 | 0.48 | 55.3 | 0.25 | 35 | 0.85 |  |  | CN(Cc1ccc(C(=O)NC(CCC(=O)O)C(=O)O)cc1)c1cnc2nc(N)nc(O)c2c1 (configuration not stated) | 
